The values below come from US20230181555A1, “STABLE AND PRESERVED PHARMACEUTICAL COMPOSITIONS OF BILASTINE” (priority 2019, published 2023).

The nature of series [1]: Solubility of bilastine and mometasone furoate in formulations with HPBCD. Type of series: physicochemical. To be noted: HPBCD 75 mg/mL (7.5 wt %); FIG. 1B. The protocol:
Six different formulations (with mometasone furoate monohydrate and the rest of excipients as defined in example 7) were prepared (see table below). The six formulations had amounts of HPBCD from 12.5 to 100 mg/mL. Then, in each of them an excessive amount of bilastine was added and the maximum solubility was tested. Furthermore, the percentage of the mometasone furoate dissolved was also tested. All the measurements were conducted at time 0.

Series [2] can be described thus: Solubility of bilastine in water. The conditions noted are these: pH-dependent. The format is physicochemical.

Take `C[C@@H]1C[C@H]2[C@@H]3CCC4=CC(=O)C=C[C@]4(C)[C@@]3(Cl)[C@@H](O)C[C@]2(C)[C@@]1(OC(=O)c1ccco1)C(=O)CCl.O` [Mometasone Furoate monohydrate, Mometasone furoate monohydrate]: the “solubility of mometasone furoate” value in series [1] is “around 4 mg/mL”. Consider `CCOCCn1c(C2CCN(CCc3ccc(C(C)(C)C(=O)O)cc3)CC2)nc2ccccc21` [Bilastine, 2-[4-(2-{4-[1-(2-ethoxyethyl)-1H-benzimidazol-2-yl]-1-piperidinyl}ethyl)phenyl]-2-methylpropanoic acid], for which, in series [2], the solubility in water result was “only slightly soluble”.
